Target: T1, ΔF508-CFTR (Homo sapiens, UniProt P13569, DEL508-508)
T1 construct: expressed in transfected cells; host or cells: NIH3T3 mouse fibroblasts, stably expressing
Assay: Membrane potential optical methods for assaying ΔF508-CFTR modulation properties of compounds
Type: cell-based
Details: NIH3T3 cells expressing ΔF508-CFTR
Source text: Assays for Detecting and Measuring ΔF508-CFTR Correction Properties of Compounds
Membrane potential optical methods for assaying ΔF508-CFTR modulation properties of compounds
The optical membrane potential assay utilized voltage-sensitive FRET sensors described by Gonzalez and Tsien (See, Gonzalez, J. E. and R. Y. Tsien (1995) “Voltage sensing by fluorescence resonance energy transfer in single cells” Biophys J 69(4): 1272-80, and Gonzalez, J. E. and R. Y. Tsien (1997) “Improved indicators of cell membrane potential that use fluorescence resonance energy transfer” Chem Biol 4(4): 269-77) in combination with instrumentation for measuring fluorescence changes such as the Voltage/Ion Probe Reader (VIPR) (See, Gonzalez, J. E., K. Oades, et al. (1999) “Cell-based assays and instrumentation for screening ion-channel targets” Drug Discov Today 4(9): 431-439).
These voltage sensitive assays are based on the change in fluorescence resonant energy transfer (FRET) between the membrane-soluble, voltage-sensitive dye, DiSBAC2(3), and a fluorescent phospholipid, CC2-DMPE, which is attached to the outer leaflet of the plasma membrane and acts as a FRET donor. Changes in membrane potential (Vm) cause the negatively charged DiSBAC2(3) to redistribute across the plasma membrane and the amount of energy transfer from CC2-DMPE changes accordingly. The changes in fluorescence emission were monitored using VIPR™ II, which is an integrated liquid handler and fluorescent detector designed to conduct cell-based screens in 96- or 384-well microtiter plates.
1. Identification of Correction Compounds
To identify small molecules that correct the trafficking defect associated with EF508-CFTR; a single-addition HTS assay format was developed. The cells were incubated in serum-free medium for 16 hrs at 37° C. in the presence or absence (negative control) of test compound. As a positive control, cells plated in 384-well plates were incubated for 16 hrs at 27° C. to “temperature-correct” ΔF508-CFTR. The cells were subsequently rinsed 3× with Krebs Ringers solution and loaded with the voltage-sensitive dyes. To activate ΔF508-CFTR, 10 μM forskolin and the CFTR potentiator, genistein (20 μM), were added along with Cl^−-free medium to each well. The addition of Cl^−-free medium promoted Cl^−-efflux in response to ΔF508-CFTR activation and the resulting membrane depolarization was optically monitored using the FRET-based voltage-sensor dyes.
2. […]
To identify potentiators of ΔF508-CFTR, a double-addition HTS assay format was developed. […] The extracellular Cl^−-concentration following both additions was 28 mM, which promoted Cl^−-efflux in response to ΔF508-CFTR activation and the resulting membrane depolarization was optically monitored using the FRET-based voltage-sensor dyes. […]

T1 sequence (P13569 with tags, fused parts or gaps DEL508-508): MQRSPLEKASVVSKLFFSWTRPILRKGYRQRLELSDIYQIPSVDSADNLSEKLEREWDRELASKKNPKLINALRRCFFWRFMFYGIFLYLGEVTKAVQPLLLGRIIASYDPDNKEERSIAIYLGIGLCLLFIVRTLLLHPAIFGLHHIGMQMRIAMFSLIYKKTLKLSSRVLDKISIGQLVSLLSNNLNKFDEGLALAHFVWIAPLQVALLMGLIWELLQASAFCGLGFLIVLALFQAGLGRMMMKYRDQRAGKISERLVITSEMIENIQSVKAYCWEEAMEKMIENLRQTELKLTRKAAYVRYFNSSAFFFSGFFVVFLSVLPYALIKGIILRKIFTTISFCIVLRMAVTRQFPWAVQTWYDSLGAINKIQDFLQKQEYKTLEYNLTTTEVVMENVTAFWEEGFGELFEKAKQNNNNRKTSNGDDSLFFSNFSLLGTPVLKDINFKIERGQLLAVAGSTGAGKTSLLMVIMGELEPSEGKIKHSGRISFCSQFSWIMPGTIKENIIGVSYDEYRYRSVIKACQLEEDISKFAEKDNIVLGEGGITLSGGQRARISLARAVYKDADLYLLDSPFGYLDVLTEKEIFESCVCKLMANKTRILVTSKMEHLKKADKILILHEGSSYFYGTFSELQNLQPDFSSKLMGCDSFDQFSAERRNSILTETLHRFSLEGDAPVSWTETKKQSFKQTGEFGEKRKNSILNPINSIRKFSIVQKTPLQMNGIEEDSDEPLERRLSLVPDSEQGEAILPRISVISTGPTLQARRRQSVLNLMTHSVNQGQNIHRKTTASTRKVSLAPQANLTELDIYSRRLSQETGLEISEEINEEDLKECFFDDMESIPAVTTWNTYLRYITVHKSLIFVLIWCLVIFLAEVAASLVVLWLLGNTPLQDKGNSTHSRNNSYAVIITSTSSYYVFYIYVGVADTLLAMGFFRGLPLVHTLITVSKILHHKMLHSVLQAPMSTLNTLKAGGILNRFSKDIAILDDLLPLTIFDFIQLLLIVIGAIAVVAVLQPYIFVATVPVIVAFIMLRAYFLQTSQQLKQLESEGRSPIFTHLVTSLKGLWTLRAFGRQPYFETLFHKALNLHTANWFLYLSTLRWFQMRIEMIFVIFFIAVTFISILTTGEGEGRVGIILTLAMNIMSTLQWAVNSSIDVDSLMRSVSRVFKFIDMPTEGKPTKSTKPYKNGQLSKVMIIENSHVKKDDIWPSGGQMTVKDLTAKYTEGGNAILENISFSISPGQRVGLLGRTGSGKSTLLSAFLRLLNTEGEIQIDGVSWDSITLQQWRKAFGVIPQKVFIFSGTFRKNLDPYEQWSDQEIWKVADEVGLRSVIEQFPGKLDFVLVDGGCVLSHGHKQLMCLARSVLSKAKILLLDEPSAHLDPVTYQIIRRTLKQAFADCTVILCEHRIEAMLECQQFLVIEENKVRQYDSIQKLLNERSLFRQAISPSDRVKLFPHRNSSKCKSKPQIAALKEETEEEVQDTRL

Row | EC50 [nM] | Percent Efficacy | Compound
1 | ≤ 2000 | +++ (100.0% < +++) | COc1ccc(C2(C(=O)Nc3ccc(C)c(-c4cccc(C(=O)O)c4)n3)CC2)cc1 [compound 1]
2 | ≤ 2000 | +++ (100.0% < +++) | Cc1ccc(NC(=O)C2(c3ccc4c(c3)CCO4)CC2)nc1-c1cccc(C(=O)O)c1 [compound 2]

— patent US7754739B2, “Modulators of CFTR” (Vertex Pharmaceuticals Incorporated, priority 2007, dated 2010)
